System: skin (back) of subjects
Conditions: in vivo

induction phase patch reading: negative at each reading
Substance: petrolatum
challenge patch reading: dermal contact irritation or sensitization: negative at each reading without any evidence of dermal contact irritation or sensitization

From US4879114A, “Lipids from omentum and methods for cosmetic use” (Angio-Medical Corporation, priority 1985, dated 1989)
